Measured values published in PMC6272306, “LC-MS/MS Determination and Pharmacokinetic Study of Pedunculoside in Rat Plasma after Oral Administration of Pedunculoside and Ilex rotunda Extract” (Molecules, 2015).
Like-named read-outs stand apart in the source and are kept apart here.

Columns and labels:
[1] = system: hyperlipidemic albino rats; parameters: method as in doi:10.1076/phbi.37.1.37.6314; details: cited from earlier work
[2] = Pharmacokinetic study of PDC in rat plasma after oral administration of pure PDC or IRE (LC-MS/MS); assay type: in vivo, Sprague-Dawley rats; details: male, Sprague-Dawley, PDC in rat plasma, n = 6, mean ± SD; for CL/F: read-out: CLz/F (converted); for MRT last: read-out: MRT0–t; for MRT inf: read-out: MRT0–∞; for Vd/F: read-out: Vz/F; for half-life: read-out: t1/2z (converted)
Protocol: The analytical procedures described in Section 3.3 were performed to quantify PDC in rat plasma samples obtained from 24 male Sprague-Dawley rats. Out of these rats, 12 were orally administered with pure PDC, whereas 12 were orally administered with IRE. Establishing an intravenous dose group might provide the bioavailability of PDC, however, the present experiment aimed to compare the pharmacokinetic differences of PDC between monomer and IRE groups after oral administration. A fully validated LC-MS/MS method was developed and successfully applied to the pharmacokinetic behavior of PDC in rats after oral administration of the pure PDC and IRE, which were given at the same equivalent doses (42 and 84 mg/kg PDC). The mean plasma concentration-time profiles of PDC and the herbal extract after oral administration at different doses are illustrated in Figure 3, and the estimated pharmacokinetic parameters are presented in Table 4. A simple and rapid protein precipitation method was used for the preparation of all the plasma samples (calibration standards and QC samples, and real plasma samples post-dose). Plasma sample aliquots (75 µL) were added with IS solution (50 µL, 200 ng/mL) and methanol (500 µL) in tubes, then vortex-mixed for 1 min, and centrifuged at 14,000× g for 10 min. […] The dried residue was reconstituted in 100 µL of methanol-H2O (70:30, v/v) and centrifuged at 14,000× g for 5 min before analysis, and an aliquot of 5 µL was injected into LC-MS/MS systems for analysis. All experimental procedures and protocols were approved by the Animal Care and Use Committee of Jilin University (Changchun, China). All the rats were fasted for 12 h before the experiment, and were randomly divided into four groups (n = 6 per group). Group I and II were intragastrically administrated an oral dose of 42 and 84 mg/kg pure PDC, respectively. Group III and IV were intragastrically administrated an oral dose of 0.16 and 0.32 g/kg IRE, which was equivalent to 42 and 84 mg/kg PDC, respectively. Both pure PDC and IRE powder was suspended in 0.5% carboxymethyl cellulose sodium (CMC-Na) solution just before use. Blood samples (0.3 mL) were collected from the orbital sinus venous plexus at 0, 0.083, 0.25, 0.5, 0.75, 1, 1.5, 2, 3, 4, 6, 8, and 12 h after gavage dosing. After centrifuging at 5000× g for 10 min, the plasma samples were obtained and frozen at −20 °C until analysis. The pharmacokinetic parameters including Cmax, Tmax, t1/2z, AUC0–t, AUC0–∞, CLz/F, and Vz/F were calculated by non-compartmental method using the DAS 2.0 pharmacokinetics program (Chinese Pharmacology Society, Beijing, China). An independent-sample t-test was performed twice to evaluate the differences of pharmacokinetic parameters between the two groups.

[3] = Stability of PDC in rat plasma QC samples under various storage conditions; assay type: in vitro ADME; details: n = 6
Protocol: The results were compared with those obtained with freshly prepared QC samples. It could be seen from Table 3 that the results are well within the acceptance limits. Stability of PDC in plasma was tested by the analysis of six replicates of QC samples […] exposed to various storage conditions. To assess the short-term stability study, QC samples were kept at 25 °C for at least 4 h and samples were processed at different time points and were determined and compared with the freshly prepared QC samples. For the long-term stability, QC samples were determined after storage of the plasma samples at −20 °C for 2 months. For freeze-thaw stability, QC samples were subjected to three freeze/thaw cycles (room temperature to −20 °C). For post-preparation stability, the processed QC samples stored in the autosampler trials for 12 h at 4 °C, were analyzed and compared with the freshly prepared QC samples.

[4] = 42 mg/kg PDC (IRE dosage equivalent to PDC dosage)
[5] = 84 mg/kg PDC (IRE dosage equivalent to PDC dosage)
[6] = processed rat plasma samples in autosampler, Post-preparation stability (4 °C for 12 h), nominal 0.60 ng/mL (LLOQ)
[7] = processed rat plasma samples in autosampler, Post-preparation stability (4 °C for 12 h), nominal 1.50 ng/mL (QC-low)
[8] = processed rat plasma samples in autosampler, Post-preparation stability (4 °C for 12 h), nominal 15.0 ng/mL (QC-medium)
[9] = processed rat plasma samples in autosampler, Post-preparation stability (4 °C for 12 h), nominal 180 ng/mL (QC-high)
[10] = rat plasma, Long-term stability (−20 °C for 2 months), nominal 0.60 ng/mL (LLOQ)
[11] = rat plasma, Long-term stability (−20 °C for 2 months), nominal 1.50 ng/mL (QC-low)
[12] = rat plasma, Long-term stability (−20 °C for 2 months), nominal 15.0 ng/mL (QC-medium)
[13] = rat plasma, Long-term stability (−20 °C for 2 months), nominal 180 ng/mL (QC-high)
[14] = rat plasma, Short-term (25 °C for 4 h), nominal 0.60 ng/mL (LLOQ)
[15] = rat plasma, Short-term (25 °C for 4 h), nominal 1.50 ng/mL (QC-low)
[16] = rat plasma, Short-term (25 °C for 4 h), nominal 15.0 ng/mL (QC-medium)
[17] = rat plasma, Short-term (25 °C for 4 h), nominal 180 ng/mL (QC-high)
[18] = rat plasma, Three freeze/thaw cycles (room temperature to −20 °C), nominal 0.60 ng/mL (LLOQ)
[19] = rat plasma, Three freeze/thaw cycles (room temperature to −20 °C), nominal 1.50 ng/mL (QC-low)
[20] = rat plasma, Three freeze/thaw cycles (room temperature to −20 °C), nominal 15.0 ng/mL (QC-medium)
[21] = rat plasma, Three freeze/thaw cycles (room temperature to −20 °C), nominal 180 ng/mL (QC-high)

C[C@@H]1CC[C@]2(C(=O)O[C@@H]3O[C@H](CO)[C@@H](O)[C@H](O)[C@H]3O)CC[C@]3(C)C(=CC[C@@H]4[C@@]5(C)CC[C@H](O)[C@@](C)(CO)[C@@H]5CC[C@]43C)[C@@H]2[C@]1(C)O [PDC, Pedunculoside]
hypolipidemic activity [1]: significant hypolipidemic activity
AUC(0-inf) [2, 4]: 379 ± 84.8 ng·h/mL
AUC(0-t) [2, 4]: 374 ± 82.9 ng·h/mL
Cmax [2, 4]: 95.2 ± 7.93 ng/mL
Tmax [2, 4]: 1.6 ± 0.42 h
CL/F [2, 4]: 1930 mL/min/kg
MRT last [2, 4]: 3.17 ± 0.45 h
MRT inf [2, 4]: 3.33 ± 0.48 h
Vd/F [2, 4]: 287 ± 63.5 L/kg
half-life [2, 4]: 1.73 ± 0.11 h
AUC(0-inf) [2, 5]: 665 ± 151 ng·h/mL
AUC(0-t) [2, 5]: 661 ± 149 ng·h/mL
Cmax [2, 5]: 174 ± 12.9 ng/mL
Tmax [2, 5]: 1.8 ± 0.91 h
CL/F [2, 5]: 2110 mL/min/kg
MRT last [2, 5]: 3.08 ± 0.42 h
MRT inf [2, 5]: 3.15 ± 0.44 h
Vd/F [2, 5]: 273 ± 45.6 L/kg
half-life [2, 5]: 1.5 ± 0.08 h
Determined Conc. (Mean ± SD) [3, 6]: 0.596 ± 0.011 ng/mL
RE [3, 6]: −0.60%
Determined Conc. (Mean ± SD) [3, 7]: 1.65 ± 0.10 ng/mL
RE [3, 7]: 10.04%
Determined Conc. (Mean ± SD) [3, 8]: 13.81 ± 0.63 ng/mL
RE [3, 8]: −7.91%
Determined Conc. (Mean ± SD) [3, 9]: 183.17 ± 2.59 ng/mL
RE [3, 9]: 1.76%
Determined Conc. (Mean ± SD) [3, 10]: 0.573 ± 0.008 ng/mL
RE [3, 10]: −4.56%
Determined Conc. (Mean ± SD) [3, 11]: 1.52 ± 0.16 ng/mL
RE [3, 11]: 1.11%
Determined Conc. (Mean ± SD) [3, 12]: 15.96 ± 0.68 ng/mL
RE [3, 12]: 6.39%
Determined Conc. (Mean ± SD) [3, 13]: 160.70 ± 7.58 ng/mL
RE [3, 13]: −10.72%
Determined Conc. (Mean ± SD) [3, 14]: 0.673 ± 0.014 ng/mL
RE [3, 14]: 12.24%
Determined Conc. (Mean ± SD) [3, 15]: 1.44 ± 0.09 ng/mL
RE [3, 15]: −3.77%
Determined Conc. (Mean ± SD) [3, 16]: 14.88 ± 1.03 ng/mL
RE [3, 16]: −0.77%
Determined Conc. (Mean ± SD) [3, 17]: 192.71 ± 11.42 ng/mL
RE [3, 17]: 7.06%
Determined Conc. (Mean ± SD) [3, 18]: 0.570 ± 0.016 ng/mL
RE [3, 18]: −5.00%
Determined Conc. (Mean ± SD) [3, 19]: 1.38 ± 0.162 ng/mL
RE [3, 19]: −7.82%
Determined Conc. (Mean ± SD) [3, 20]: 16.32 ± 1.37 ng/mL
RE [3, 20]: 8.81%
Determined Conc. (Mean ± SD) [3, 21]: 162.85 ± 15.57 ng/mL
RE [3, 21]: −9.53%
